What was measured:
[1] = NOVARTIS: Cytotoxicity against human hepatocellular carcinoma cell line (Huh7); format: toxicity, cell-based, Huh-7; conditions: Huh7 cells (hepatocellular carcinoma cell line)
[2] = system: Plasmodium falciparum; experiment: NOVARTIS: Inhibition of Plasmodium falciparum 3D7 (drug-susceptible) proliferation in erythrocyte-based infection assay; format: functional, organism-based; conditions: Plasmodium falciparum, 3D7
[3] = system: Plasmodium falciparum; experiment: NOVARTIS: Inhibition of Plasmodium falciparum W2 (drug-resistant) proliferation in erythrocyte-based infection assay; format: functional, organism-based; conditions: Plasmodium falciparum, W2; read-out: EC50

Row | Structure (SMILES) | CC50 [1] [nM] | EC50 [2] [nM] | EC50 [3] [nM]
1 | Cc1cc(Nc2cccc(F)c2)nc(NCc2ccccc2)n1 | 20800 | 72.2 | 664
2 | CSc1oc(-c2ccccc2)nc1C(N)=O | > 10000 | > 1200 | > 925
3 | O=C(NCCCCNc1ccnc2cc(Cl)ccc12)c1ccccc1Cl | > 12000 | 761 | < 13.7
4 | COc1cc(Br)c(/C=C2\Sc3ccccc3C2=O)cc1OC | > 10000 | > 1250 | > 925
5 | COc1ccc(C(OCC(=O)N2CCN(Cc3ccccc3)CC2)c2ccccc2)cn1 (centres undefined) | > 10000 | 604 | 434
6 | Cc1oc2c(c1C(=O)NCCCn1ccnc1)C(=O)c1ccccc1C2=O | 270 | 90.4 | 39.1
7 | Cc1ccnc(NC(c2ccc3ccccc3c2)c2ccc3cccnc3c2O)c1 (centres undefined) | > 100000 | 6750 | > 12500
8 | O=C(Nc1ccc(NC(=O)Nc2ccc(C3=NCCN3)cc2)cc1)Nc1ccc(C2=NCCN2)cc1 | > 10000 | 305 | 276
9 | CCOC(=O)C1=C(C)NC2=C(C(=O)CC(c3ccc(Cl)cc3)C2)C1c1ccc(F)cc1 (centres undefined) | > 100000 | 95 | 42.8
10 | CCCc1c(C(=O)OCC)c2cc(O)ccc2n1-c1ccc(OC)cc1 | > 100000 | 133 | 339
11 | CC(C)c1nc(N2CCN(C(=S)NCc3ccccc3)CC2)c(C#N)c2c1COC(C)(C)C2 | > 100000 | 183 | 112
12 | COc1ccccc1C(c1nnnn1Cc1ccc(F)cc1)N1CCN(C)CC1 (centres undefined) | > 100000 | 11900 | 970
13 | CCCCc1ccc(C(=O)NCCCCNc2ccnc3cc(Cl)ccc23)cc1 | > 10000 | 221 | 311
14 | CN(Cc1ccccc1)CC(O)COc1ccc(CNCCCN2CCCC2)cc1 (centres undefined) | 59800 | 2380 | 2560
15 | O=C(Cc1ccccc1)Nc1ccc(C(=O)Nc2ccc(-c3nc4ccc(NC(=O)c5ccc(NC(=O)Cc6ccccc6)cc5)c(Cl)c4[nH]3)cc2)cc1 | 40000 | 8000 | 6020
16 | O=[N+]([O-])c1cc(C(F)(F)F)ccc1N1CCCN(C(=S)Nc2ccccc2)CC1 | > 100000 | 87.8 | 102
17 | CCN1CCN(CC(O)COc2ccc(OC)cc2)CC1 (centres undefined) | > 100000 | 2810 | > 9190
18 | CCN1CCN(CC=Cc2ccccc2[N+](=O)[O-])CC1 | > 100000 | > 12500 | > 9690
19 | COC(=O)c1ccc(C(=O)Nc2ccc(-c3nc4cc(NC(=O)c5ccc(C(=O)OC)cc5)ccc4[nH]3)cc2)cc1 | > 10000 | 855 | 1090
20 | COc1ccc(O)c(C=NNc2nc3ccccc3[nH]2)c1 | 43900 | 576 | 355
21 | N=c1n(CCN2CCCCC2)c2ccccc2n1CC(O)COc1ccc(Cl)cc1 (centres undefined) | 6270 | 521 | 279
22 | Cc1cc(N2CCN(C)CC2)nc2ccc(NC(=O)c3ccc(Br)o3)cc12 | 53700 | 1680 | 2680
23 | Cc1cc2c(cc1C)N(C(=O)c1ccccc1)C(C)(C)c1ssc(=S)c1-2 | > 100000 | 600 | 572

Row | Structure (SMILES) | CC50 [1] [nM] | EC50 [2] [nM] | EC50 [3] [nM]
24 | COc1ccc2nc3ccccc3c(N)c2c1 | 5720 | 133 | 176
25 | CC(=O)Nc1nc(C)c(-c2csc(Nc3ccc(Cl)cc3)n2)s1 | 34400 | 140 | 97.8
26 | CCN1CCN(Cc2c(O)ccc3c(=O)c(Oc4cc(C)cc(C)c4)c(C(F)(F)F)oc23)CC1 | > 100000 | 3630 | 296
27 | CCNC(=O)C=Cc1ccc(C(C)(C)C)cc1 | > 100000 | 616 | 719
28 | CNC(=O)[C@@H]1C[C@@H](NCc2ccc(OC)cc2)CN1Cc1ccccc1 | > 10000 | > 1100 | > 1250
29 | CCN(CC)c1ccc(NCc2ccc3c(c2)OCO3)cc1 | 24600 | 603 | 805
30 | O=C1CSc2ccccc2N1 | > 100000 | > 10600 | 1080
31 | CSC1=NC(=Nc2ccccc2C)C2(CCC(C(C)(C)C)CC2)N1c1ccc(O)cc1 (centres undefined) | > 10000 | 243 | 208
32 | COc1ccc(C2=C(c3ccc(OC)cc3)C3(c4ccccc4)C(=O)C2(c2ccccc2)C2C(=O)N(c4ccc(OC)cc4[N+](=O)[O-])C(=O)C23)cc1 (centres undefined) | > 100000 | 353 | 316
33 | NCCCC[C@H]1C(=O)Nc2ccc(O)cc2C(=O)N1C(C(=O)NCC(=O)O)c1cccnc1 (some centres undefined) | > 12100 | 115 | < 6.3
34 | CCOc1ccc(-c2nonc2NC(=O)c2ccco2)cc1OCC | > 100000 | 590 | 481
35 | CC(C)CN1C(=O)N(CCCc2cccnc2)C(=O)C12CCN(C1CCOCC1)CC2 | > 100000 | > 12500 | 1420
36 | COc1ccc(NC(=O)c2cc3cc(C4(O)CCN(Cc5cc6ccccc6[nH]5)CC4)ccc3o2)cc1 | 20500 | 272 | 650
37 | COc1cccc(CNC(=O)C2CNCC2c2ccc(C(F)(F)F)cc2)c1 (centres undefined) | > 7220 | 395 | 111
38 | O=C(Nc1cc(Cl)cc(Cl)c1)Nc1ccccc1C(=O)NCC1CC1 | > 10000 | > 1180 | < 12.4
39 | c1ccc(Nc2nc(-c3ccccn3)cs2)nc1 | 18600 | 114 | 58.5
40 | CCOC(=O)C1=C(C)N/C(=C\c2cc(C)n(-c3ccc(C)cc3)c2C)C1=O | > 10000 | 1840 | 988
41 | CCOC(=O)c1c(NC(=O)COc2ccccc2[N+](=O)[O-])sc(C(C)=O)c1C | > 10000 | > 1250 | > 853
42 | COc1cnc(-c2ccccn2)nc1NC(C)C | 2500 | 712 | 1100
43 | COc1ccc(Nc2nc(NN=Cc3cccc([N+](=O)[O-])c3OC)nc(Nc3ccc([N+](=O)[O-])cc3)n2)cc1 | > 100000 | 221 | 635
44 | COc1cc(NC(C)CCCN(Cc2ccccc2OC)C(=O)Nc2cccc(F)c2)c2ncccc2c1 (centres undefined) | > 10000 | > 1660 | 840
45 | CC(=O)N(C1=C(N2CCCCC2)C(=O)c2ccccc2C1=O)c1cccc(Cl)c1 | 32000 | 239 | 375
46 | C=CCNc1ncnc2c1c(-c1ccccc1)cn2-c1ccccc1 | > 100000 | 4520 | 5220

Row | Structure (SMILES) | CC50 [1] [nM] | EC50 [2] [nM] | EC50 [3] [nM]
47 | O=C(NCc1ccccc1)c1cnc(NCCN2CCCCC2)nc1NCCc1ccccc1 | > 10000 | 950 | > 1250
48 | COc1ccc(C2CC(=O)C3=C(C2)NC(C)=C(C(=O)OC2CCCC2)C3c2ccccc2C)cc1OC (centres undefined) | > 100000 | 33.4 | 13.1
49 | COc1ccc2c(c1OC)C(=O)N1c3ccccc3N=C(c3ccc(I)cc3)CC21 (centres undefined) | > 100000 | 416 | 223
50 | CC[C@H]1CN2CC[C@@H]1C[C@@H]2[C@@H](O)c1ccnc2ccc(OC)cc12 | > 10000 | 31.8 | 57.9
51 | CCOC(=O)c1cnc2cc(OCC3CC3)c(OCC3CC3)cc2c1O | > 100000 | < 5.72 | < 0.0706
52 | Cc1ccc(-c2c[n+](-c3ccccc3)c3n2CCCS3)cc1 | > 100000 | 735 | 1640
53 | COc1cccc(OC)c1C(=O)Oc1cccc2ccc(C)nc12 | > 10000 | > 1250 | 788
54 | CCOC(=O)c1c(C)n(-c2ccccc2)c2ccc(OC(=O)c3ccco3)cc12 | > 100000 | 607 | 1140
55 | COc1cc(NC(C)CCCN(Cc2ccc(F)cc2)C(=O)CCc2ccccc2)c2ncccc2c1 (centres undefined) | 4620 | 1400 | 361
56 | Cc1ccc(Nc2nc3c(N)nnc(N)c3nc2Nc2ccc(C)cc2)cc1 | 13300 | 6120 | 2210
57 | Cc1cc(Nc2ccc(Br)cc2)n2nc(C)nc2n1 | > 100000 | 728 | 595
58 | NC(=O)c1ccc2c(c1)N=C(c1cccnc1)N(C1CC1)C2 | > 10000 | 1300 | 648
59 | OC(Cn1cnc(-c2ccccc2)c1-c1ccccc1)Cn1c2ccc(Cl)cc2c2cc(Cl)ccc21 (centres undefined) | 21200 | 589 | 99.7
60 | COc1ccc(-n2c(S)nnc2CNc2cccc(C(F)(F)F)c2)cc1 | > 100000 | 4860 | 2910
61 | CCN1CCC(Nc2ccnc3cc4ccccc4cc23)CC1 | > 10000 | 81.5 | 477
62 | Cc1nc2c(-c3ccccc3)c(C)nn2c(C)c1CC(=O)NCc1ccccn1 | > 100000 | > 12500 | 9140
63 | Cc1cccc(-n2nc(C(C)(C)C)cc2NC(=O)CN(C(=O)/C=C/c2ccccc2)C(C)C)c1C | > 10000 | > 1750 | 85.5
64 | CC(c1nc2ccc(Cl)cc2c(=O)n1C)N1CCN(S(=O)(=O)c2cccc3ccccc23)CC1 (centres undefined) | > 100000 | 147 | 140
65 | COc1ccc(C2C(C(=O)c3ccccc3)=C(O)C(=O)N2c2cccc(Cl)c2)c(OC)c1 (centres undefined) | > 100000 | > 12500 | 2590
66 | CC[C@@H](C(=O)[C@@H](C)[C@@H](O)[C@H](C)CCc1ccc(C)c(O)c1C(=O)O)[C@H]1O[C@](CC)([C@H]2CC[C@](O)(CC)[C@@H](C)O2)C[C@@H]1C | > 10000 | 726 | 468
67 | O=c1c2c([nH]c3ccccc13)CCCCCCCCCC2 | > 100000 | 277 | 671
68 | CCOC(=O)c1[nH]c2ccccc2c1N=NN(C)C | 36100 | 128 | 376

Reference: ChEMBL document CHEMBL1156829 (Proc Natl Acad Sci U S A, 2008)
